# Laboratory results published in patent publication US20250346600A1, “TRICYCLIC DERIVATIVES AND RELATED USES” (MOMA Therapeutics, Inc., priority 2023, published 2025).
# Where two headings read alike, the source gives them in different places.
# Tests used:
# [1] = target: T1, Full length WRN protein (aa 2-1432) (Homo sapiens (Human), UniProt Q14191); experiment: WRN ATPase ADP-Glo biochemical assay, Assay Format A (10 μM ATP); conditions: 0.25 nM WRN, 100 nM C6.18 ssDNA, 30 min preincubation, read-out: ATPase ADPGlo AC50 (uM)- Assay Format A
# Outline: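 ADP-Glo luminescence measured hydrolysis of ATP by purified, baculovirus-expressed N-terminally tagged full-length WRN. Enzyme (0.5 nM) was preincubated 30 min with compound, then 200 nM ssDNA C6.18 plus 20 μM ATP were added (pre-mix levels) for 30 min at RT. IC50s come from four-parameter fits, geometric mean of at least two trials.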
# [2] = target: T1, Full length WRN protein (aa 2-1432); experiment: WRN ATPase ADP-Glo biochemical assay, Assay Format B (100 μM ATP); conditions: 0.25 nM WRN, 100 nM C6.18 ssDNA, 60 min preincubation, read-out: ATPase ADPGlo AC50 (uM)- Assay Format B
# HCT116 cells = experiment: HCT116 (MSI) 7 day viability, CellTiter Glo; assay type: cell-based; conditions: 7 days, read-out: HCT116 (MSI) Viability 7 Day Abs AC50
# Outline: (§1)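 10 mM DMSO stocks serially diluted 3-fold, 10 steps; cells added (HCT116 50/well, HT29 500/well); 7 d, 37 °C, 5% CO2; CellTiter Glo 20 min RT; luminescence.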
# HT29 cells = experiment: HT29 (MSS) 7 day viability, CellTiter Glo; assay type: cell-based; conditions: 7 days, read-out: HT29 (MSS) Viability 7 Day CTGAbs AC50
# Outline: as §1
# T1 sequence (Q14191 2-1432): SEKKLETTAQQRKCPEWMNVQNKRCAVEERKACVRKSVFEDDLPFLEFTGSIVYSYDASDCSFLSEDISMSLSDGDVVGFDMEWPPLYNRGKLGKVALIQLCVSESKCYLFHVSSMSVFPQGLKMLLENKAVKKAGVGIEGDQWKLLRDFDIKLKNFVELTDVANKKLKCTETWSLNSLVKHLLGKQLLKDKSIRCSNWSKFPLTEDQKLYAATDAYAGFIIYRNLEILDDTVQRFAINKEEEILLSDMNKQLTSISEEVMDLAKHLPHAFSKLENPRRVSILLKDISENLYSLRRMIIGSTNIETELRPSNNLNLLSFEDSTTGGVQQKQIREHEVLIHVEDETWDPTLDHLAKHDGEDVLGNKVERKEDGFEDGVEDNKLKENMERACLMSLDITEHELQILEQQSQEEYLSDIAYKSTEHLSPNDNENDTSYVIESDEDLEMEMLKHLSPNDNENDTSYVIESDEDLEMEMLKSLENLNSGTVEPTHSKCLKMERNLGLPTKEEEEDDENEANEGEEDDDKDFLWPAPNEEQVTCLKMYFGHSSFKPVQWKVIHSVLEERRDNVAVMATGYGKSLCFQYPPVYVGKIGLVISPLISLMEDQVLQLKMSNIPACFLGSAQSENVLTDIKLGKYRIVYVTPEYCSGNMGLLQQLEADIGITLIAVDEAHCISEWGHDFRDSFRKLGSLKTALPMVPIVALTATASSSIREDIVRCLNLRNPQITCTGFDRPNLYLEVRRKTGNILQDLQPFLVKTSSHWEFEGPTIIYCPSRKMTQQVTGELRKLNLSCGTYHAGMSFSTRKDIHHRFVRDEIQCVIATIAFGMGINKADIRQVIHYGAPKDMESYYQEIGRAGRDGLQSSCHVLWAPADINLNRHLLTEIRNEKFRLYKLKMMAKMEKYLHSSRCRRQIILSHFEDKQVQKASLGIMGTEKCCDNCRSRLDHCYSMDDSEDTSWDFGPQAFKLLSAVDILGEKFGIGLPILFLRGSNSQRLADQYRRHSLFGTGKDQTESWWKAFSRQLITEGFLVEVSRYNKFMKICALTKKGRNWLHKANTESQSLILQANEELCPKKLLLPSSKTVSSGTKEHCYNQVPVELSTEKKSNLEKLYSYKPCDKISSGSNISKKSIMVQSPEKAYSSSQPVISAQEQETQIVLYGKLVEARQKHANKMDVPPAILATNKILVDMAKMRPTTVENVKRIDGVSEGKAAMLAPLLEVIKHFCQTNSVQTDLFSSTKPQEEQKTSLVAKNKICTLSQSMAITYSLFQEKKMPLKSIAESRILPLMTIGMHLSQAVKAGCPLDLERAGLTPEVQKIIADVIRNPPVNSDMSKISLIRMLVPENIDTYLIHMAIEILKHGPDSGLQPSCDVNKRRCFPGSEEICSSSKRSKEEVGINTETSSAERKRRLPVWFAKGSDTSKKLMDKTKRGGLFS
SMILES,AC50 [1] [µM],AC50 [2] [µM],"AC50 (HCT116 cells; Homo sapiens, HCT-116, 168 h) [nM]","AC50 (HT29 cells; Homo sapiens, HT-29, 168 h) [nM]",AC50 (HCT116 cells) [nM],AC50 (HT29 cells) [nM]
"C=CC(=O)N1CC(C)c2nn(-c3ccc(C(C)C)cc3O)c3c2C(C1)N(C(=O)c1ccc(Br)c2[nH]cnc12)CC3 (stereo not drawn) [Compound 32, 1-(5-(7-bromo-1H-benzo[d]imidazole-4-carbonyl)-2-(2-hydroxy-4-isopropylphenyl)-9-methyl-2,3,4,5,5a,6,8,9-octahydro-7H-1,2,5,7-tetraazabenzo[cd]azulen-7-yl)prop-2-en-1-one]",< 0.0015,0.005 to 0.015,,,1 to 100,> 3000
"C=CC(=O)N1CCc2nn(-c3ccc(C45CC(C4)C5)cc3F)c3c2C(C1)N(C(=O)c1ccc(Br)c2[nH]cnc12)CC3 (stereo not drawn) [Compound 30, 1-(2-(4-(bicyclo[1.1.1]pentan-1-yl)-2-fluorophenyl)-5-(7-bromo-1H-benzo[d]imidazole-4-carbonyl)-2,3,4,5,5a,6,8,9-octahydro-7H-1,2,5,7-tetraazabenzo[cd]azulen-7-yl)prop-2-en-1-one]",< 0.0015,0.005 to 0.015,1 to 100,> 3000,,
"C=CC(=O)N1CCOc2nn(-c3ccc(C4CCC4)cc3)c3c2C(C1)N(C(=O)c1ccc(Br)c2[nH]ncc12)CC3 (stereo not drawn) [Compound 42, 1-(5-(7-bromo-1H-indazole-4-carbonyl)-2-(4-cyclobutylphenyl)-2,3,4,5,5a,6,8,9-octahydro-7H-10-oxa-1,2,5,7-tetraazacycloocta[cd]inden-7-yl)prop-2-en-1-one]",< 0.0015,0.005 to 0.015,1 to 100,> 3000,,
"C=CC(=O)N1CCc2nn(-c3ccc(CC(F)(F)F)cc3O)c3c2C(C1)N(C(=O)c1ccc(Br)c2[nH]cnc12)CC3 (stereo not drawn) [Compound 2, 1-(5-(7-bromo-1H-benzo[d]imidazole-4-carbonyl)-2-(2-hydroxy-4-(2,2,2-trifluoroethyl)phenyl)-2,3,4,5,5a,6,8,9-octahydro-7H-1,2,5,7-tetraazabenzo[cd]azulen-7-yl)prop-2-en-1-one]",< 0.0015,0.005 to 0.015,1 to 100,> 3000,,
"C=CC(=O)N1CC(C)c2nn(-c3ccc(C(C)C)cc3)c3c2C(C1)N(C(=O)c1ccc(Br)c2[nH]cnc12)CC3 (stereo not drawn) [Compound 34, 1-(5-(7-bromo-1H-benzo[d]imidazole-4-carbonyl)-2-(4-isopropylphenyl)-9-methyl-2,3,4,5,5a,6,8,9-octahydro-7H-1,2,5,7-tetraazabenzo[cd]azulen-7-yl)prop-2-en-1-one]",0.0015 to 0.005,0.005 to 0.015,,,250 to 500,> 3000
"C=CC(=O)N1CCOc2nn(-c3ccc(C4CCC4)cc3O)c3c2C(C1)N(C(=O)c1ccc(Br)c2[nH]cnc12)CC3 (stereo not drawn) [Compound 39, 1-(5-(7-bromo-1H-benzo[d]imidazole-4-carbonyl)-2-(4-cyclobutyl-2-hydroxyphenyl)-2,3,4,5,5a,6,8,9-octahydro-7H-10-oxa-1,2,5,7-tetraazacycloocta[cd]inden-7-yl)prop-2-en-1-one]",0.0015 to 0.005,0.015 to 0.055,1 to 100,> 3000,,
"C=CC(=O)N1CCc2nn(-c3ccc(C45CC(C4)C5)nc3)c3c2C(C1)N(C(=O)c1ccc(Br)c2[nH]cnc12)CC3 (stereo not drawn) [Compound 29, 1-(2-(6-(bicyclo[1.1.1]pentan-1-yl)pyridin-3-yl)-5-(7-bromo-1H-benzo[d]imidazole-4-carbonyl)-2,3,4,5,5a,6,8,9-octahydro-7H-1,2,5,7-tetraazabenzo[cd]azulen-7-yl)prop-2-en-1-one]",0.015 to 0.055,> 0.055,100 to 250,> 3000,,

# Further lines, with some results ahead:
AC50 [1] [µM],AC50 [2] [µM],SMILES,"AC50 (HCT116 cells; Homo sapiens, HCT-116, 168 h) [nM]","AC50 (HT29 cells; Homo sapiens, HT-29, 168 h) [nM]",AC50 (HCT116 cells) [nM],AC50 (HT29 cells) [nM]
< 0.0015,0.005 to 0.015,"C=CC(=O)N1CCc2nn(-c3ccc(C4CC4)cc3O)c3c2C(C1)N(C(=O)c1cnc(Cl)cc1N)CC3 (stereo not drawn) [Compound 196, 1-(5-(4-amino-6-chloronicotinoyl)-2-(4-cyclopropyl-2-hydroxyphenyl)-2,3,4,5,5a,6,8,9-octahydro-7H-1,2,5,7-tetraazabenzo[cd]azulen-7-yl)prop-2-en-1-one]",1 to 100,> 3000,,
0.005 to 0.015,> 0.055,"C=CC(=O)N1CCc2nn(-c3ccc(C(C)C)cc3)c3c2C(C1)N(C(=O)c1ccc(Br)c2ncn(CC4CCO4)c12)CC3 (stereo not drawn) [Compound 82, 1-(5-(4-bromo-1-((oxetan-2-yl)methyl)-1H-benzo[d]imidazole-7-carbonyl)-2-(4-isopropylphenyl)-2,3,4,5,5a,6,8,9-octahydro-7H-1,2,5,7-tetraazabenzo[cd]azulen-7-yl)prop-2-en-1-one]",500 to 1000,> 3000,,
0.005 to 0.015,> 0.055,"C=CC(=O)N1CCOc2nn(-c3ccc(C(C)C)cc3)c3c2C(C1)N(C(=O)c1cnc(C(F)(F)F)c(O)c1)CC3 (stereo not drawn) [Compound 47, 1-(5-(5-hydroxy-6-(trifluoromethyl)nicotinoyl)-2-(4-isopropylphenyl)-2,3,4,5,5a,6,8,9-octahydro-7H-10-oxa-1,2,5,7-tetraazacycloocta[cd]inden-7-yl)prop-2-en-1-one]",> 1000,> 3000,,
0.015 to 0.055,> 0.055,"C=CC(=O)N1CCc2nn(-c3ccc(C4CC4)cc3C(F)(F)F)c3c2C(C1)N(C(=O)c1cnc(C(F)(F)F)cc1N)CC3 (stereo not drawn) [Compound 256, 1-(5-(4-amino-6-(trifluoromethyl)nicotinoyl)-2-(4-cyclopropyl-2-(trifluoromethyl)phenyl)-2,3,4,5,5a,6,8,9-octahydro-7H-1,2,5,7-tetraazabenzo[cd]azulen-7-yl)prop-2-en-1-one]",250 to 500,> 3000,,
< 0.0015,0.0015 to 0.005,"C=CC(=O)N1CC(OC)c2nn(-c3ccc(C4CCC4)cc3O)c3c2C(C1)N(C(=O)c1cnc(C(F)(F)F)c(O)c1)CC3 (stereo not drawn) [Compound 72, 1-(2-(4-cyclobutyl-2-hydroxyphenyl)-5-(5-hydroxy-6-(trifluoromethyl)nicotinoyl)-9-methoxy-2,3,4,5,5a,6,8,9-octahydro-7H-1,2,5,7-tetraazabenzo[cd]azulen-7-yl)prop-2-en-1-one]",1 to 100,> 3000,,
< 0.0015,0.0015 to 0.005,"C=CC(=O)N1CC(OCc2nnc(C)s2)c2nn(-c3ccc(C4CC4)cc3)c3c2C(C1)N(C(=O)c1cnc(C(F)(F)F)cc1N)CC3 (stereo not drawn) [Compound 249, 1-(5-(4-amino-6-(trifluoromethyl)nicotinoyl)-2-(4-cyclopropylphenyl)-9-((5-methyl-1,3,4-thiadiazol-2-yl)methoxy)-2,3,4,5,5a,6,8,9-octahydro-7H-1,2,5,7-tetraazabenzo[cd]azulen-7-yl)prop-2-en-1-one]",1 to 100,> 3000,,
0.0015 to 0.005,0.005 to 0.015,"C=CC(=O)N1CCc2nn(-c3ccc(C4CC4)cc3)c3c2C(C1)N(C(=O)c1ccc(C(F)(F)F)nc1N)CC3 (stereo not drawn) [Compound 67, 1-(5-(2-amino-6-(trifluoromethyl)nicotinoyl)-2-(4-cyclopropylphenyl)-2,3,4,5,5a,6,8,9-octahydro-7H-1,2,5,7-tetraazabenzo[cd]azulen-7-yl)prop-2-en-1-one]",1 to 100,> 3000,,
< 0.0015,0.005 to 0.015,"C=CC(=O)N1CCc2nn(-c3ccc(C(C)C)cc3)c3c2C(C1)N(C(=O)c1cnc(C(F)(F)F)cc1N)CC3 (stereo not drawn) [Compound 150, 1-(5-(4-amino-6-(trifluoromethyl)nicotinoyl)-2-(4-isopropylphenyl)-2,3,4,5,5a,6,8,9-octahydro-7H-1,2,5,7-tetraazabenzo[cd]azulen-7-yl)prop-2-en-1-one]",1 to 100,> 3000,,
